A short description of data set [1]: CaCo-2 permeability assay Alt 1 (pH gradient 6.5/7.4). The class given is in vitro ADME. The conditions noted are these: human, Alt 1: apical to basolateral, pH 6.5 apically, pH 7.4 basolaterally, typically 10 μM, mean value. As for the experimental part: (§1) CaCo-2 Cell Permeability Assay
(§2) CaCo-2 cells were seeded onto filter membrane at a density of 340500 cells/cm2 for 24 well plates (0.33 cm2/well). The cells were grown in culture medium consisting of Dulbecco's modified Eagle's medium with glucose and L-glutamine supplemented with 10% fetal bovine serum, 100 U/ml penicillin-G, and 100 μg/ml streptomycin and 1% (v/v) 100X non-essential amino acids. The culture medium was replaced every second day and the cells were maintained at 37° C., 95% relative humidity, and 5% CO2. Permeability studies were conducted with the monolayers cultured for 21-28 days with the cell passage numbers between 25 and 50.
Alt 1. the CaCo-2 Permeability Assay Used in Examples 3, 5, 6 and Reference Example.
The CaCo-2 permeabilty assay were performed in the apical to basolateral directions under gradient pH-gradient conditions (pH 6.5 apically, pH 7.4 basolaterally). HBSS containing 25 mM HEPES (pH 7.4) and 25 mM MES (pH 6.5) was used as transport medium. Fully differentiated cell monolayers were washed with transport medium. The drug solutions, typically 10 μM, were prepared in transport medium, pH 6.5 (1% DMSO). The permeability experiment was started by adding 0.2 ml drug solutions on the apical side. The basolateral side contained 0.8 ml of transport medium, pH 7.4. Three inserts with cells and one without were assayed for each drug. Cells were kept in an incubator at 37° C. and shaking. 200 μl samples were taken at 45 and 90 min from the basolateral side. The same volume of transport buffer was added to the basolateral compartments after the first sampling. Compound recovery was assessed by calculating the sum of the cumulatively transported amount and the amount left in the donor side against the initial amount of drug. The samples were analysed online using liquid chromatography tandem mass spectrometry (LC/MS/MS). […] The samples of 25 μl were analysed by liquid scintillation.
(§3) The apparent permeability coefficient is calculated as follows: […]
On the technique in general: Passage across Caco-2 layers is used to estimate intestinal permeability.

For data set [2], the target named is Cdk2/cyclin E (Homo sapiens, UniProt P24941). Kind of data set: ATP competition in scintillation proximity Cdk2 assay. The conditions noted are these: mean value; Ki calculated with Km of ATP 0.5 μM. The class given is biochemical. How it is done: Determination of ATP Competition in Scintillation Proximity Cdk2 Assay.
The competiton experiments were carried out in duplicate with 10 concentrations of the inhibitor in 96 well clear-bottom microtiter plates. Cdk2/cyclin E enzyme was added at a concentration corresponding to a 80 times dilution of the partially purified bacluloviral infected insect cell lysate in a buffer containing 50 mmol/L HEPES, 10 mmol/L MnCl2, 1 mmol/L dithiothreitol (DTT), 100 μmol/L NaF, 100 μmol/L sodium vanadate, 10 mmol/L sodium glycerophosphate, 5 μg/mL aprotinin, 2.5 μg/mL leupeptin and 100 μmol/L PMSF, pH 7.5. Blank controls without enzyme were used. The reaction was initiated by the addition of 1.25 μg GST-Rb, 0.15 μCi [γ-33P]ATP and unlabelled ATP at a final concentration of 0.1 μmol/L. The final assay volume was 50 μL. After incubation for 60 min at room temperature, each reaction was terminated by the addition of 150 μL stop solution containing 45 μL protein A coated SPA beads in 50 mmol/L HEPES, 3.28 mg antiglutathione-S-transferase, and 5.5 mmol/L EDTA and 35 μmol/L ATP. The plate was centrifuged at 2000 rpm for 5 min and the radioactivity was determined in a liquid scintillation counter (1450 MicroBeta Trilux, Perkin Elmer, Finland). The Km value of ATP for Cdk2 used to calculate the inhibition constants (Ki) of the various compounds, was 0.5 μM

The target in data set [3] is T1, recombinant human GSK3β (Homo sapiens, UniProt P49841).
T1 construct: purchased Dundee University, UK
Kind of data set: ATP competition in scintillation proximity GSK3β assay. The data set is classed as biochemical. The settings on record: for Ki: mean value, Ki calculated with Km of ATP 20 μM; for Selectivity GSK3β vs CDK2: ratio of CDK2 Ki to GSK3β Ki. As for the experimental part: Determination of ATP Competition in Scintillation Proximity GSK3β Assay.
The inhibition experiments were carried out in duplicate with 10 concentrations of the inhibitor in 384 well clear-bottom microtitre plates. A biotinylated peptide substrate (Biotin-Ala-Ala-Glu-Glu-Leu-Asp-Ser-Arg-Ala-Gly-Ser(PO3H2)-Pro-Gln-Leu (AstraZeneca, Lund)), was added at a final concentration of 1 mmol/L in an assay buffer (pH 7.0) containing 0.1 mU recombinant human GSK3β (Dundee University, UK), (1 nmol/L active enzyme), 10 mmol/L morpholinepropanesulfonic acid (MOPS), 0.3 mmol/L EDTA, 0.01% (v/v) β-mercaptoethanol, 0.003% (w/v) polyethylene 23 lauryl ether (Brij 35), 0.4% glycerol and 0.02 mg bovine serum albumine (BSA) and preincubated for 10 minutes. The reaction was initiated by the addition of 0.06 mCi [γ-33P]ATP (Amersham, UK) and unlabelled ATP in 30 mmol/L Mg(Ac)2 to a final concentration of […] ATP. The final assay volume was […]. Blank controls without peptide substrate were used. After incubation for 15 min at room temperature, the reaction was terminated by the addition of stop solution containing 1.3 mmol/L EDTA, 13 mmol/L ATP, 0.02% Triton™X-100 and 0.15 mg streptavidin coated SPA beads. After a 5 minutes centrifugation at 2000 rpm, the radioactivity was measured in a liquid scintillation counter (1450 MicroBeta Trilux, Perkin Elmer, Finland). The Km value of ATP for GSK3β, used to calculate the inhibition constants (Ki) of the various compounds, was 20 μM.

Data set [4] in a line: CaCo-2 A to B permeability assay Alt 2 (pH 7.4). The conditions noted are these: human, Alt 2: apical to basolateral, pH 7.4, 10 μM, mean value. The data set is classed as in vitro ADME. How it is done:
as §1, §2
Alt 2. the CaCo-2 A to B Permeability Assay Used in Examples 2-4, 7-8.
The CaCo-2 A to B assay was performed in the apical to basolateral direction (each in duplicates) at pH 7.4. HBSS containing 25 mM HEPES (pH 7.4) was used as transport medium. The drug solutions, typically 10 μM, were prepared in transport medium (1% DMSO). Studies of six compounds can be performed in one 24 well plate that generates one 96 deepwell analysis plate (maximum capacity 6 plates=36 compounds and 6 deep well plates). The CaCo-2 cell monolayers were washed once with HBSS for 10 minutes prior to start. Transport buffer, 800 μL, (HBSS, pH 7.4) is first dispensed to the basal side of the monolayer. The assay is then initiated by addition of 225 μL of each compound (10 μM) to the apical side. Samples are withdrawn directly (Donor 0) and at 60 min (Donor end and Receiver 60) post addition of test compound. 25 μL and 150 μL are withdrawn from the donor compartment and the receiver compartment, respectively. During washing-step and incubation with compounds the transwell plates are placed in a shaking incubator at 480 rpm and 37° C. The integrity of the epithelial cell monolayer is monitored by measuring the amount of radiolabelled [^14C]mannitol (low passive paracellular diffusion) in the donor compartment at time 0 min to 60 min. Luma Plate 96-well is used for analysis of [14C]mannitol. Compound recovery was assessed by calculating the sum of the cumulatively transported amount and the amount left in the donor side against the initial amount of drug. The samples were analysed online using liquid chromatography tandem mass spectrometry (LC/MS/MS).
as §3
where ΔQ/Δt is the total amount of substance transported into the receiver chamber per unit time, A is the surface area (cm^2), and C0 the starting donor concentration. The apparent permeability Papp is expressed in ×10-6 cm/sec.

Counter-ions that a name gives are not always drawn.

T1 sequence (P49841 whole entry): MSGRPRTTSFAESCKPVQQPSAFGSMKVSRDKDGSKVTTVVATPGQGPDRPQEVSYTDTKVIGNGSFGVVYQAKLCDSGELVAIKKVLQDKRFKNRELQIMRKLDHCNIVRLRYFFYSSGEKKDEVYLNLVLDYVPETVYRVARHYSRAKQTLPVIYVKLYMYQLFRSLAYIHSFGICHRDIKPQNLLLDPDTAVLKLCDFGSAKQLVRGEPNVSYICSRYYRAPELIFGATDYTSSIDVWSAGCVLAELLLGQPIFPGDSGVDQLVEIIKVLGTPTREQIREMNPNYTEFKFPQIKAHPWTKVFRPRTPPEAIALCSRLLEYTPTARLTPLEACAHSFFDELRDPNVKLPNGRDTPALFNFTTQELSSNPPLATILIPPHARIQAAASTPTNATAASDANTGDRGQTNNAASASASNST

In data set [1], `Cc1ncc(-c2nc(Nc3cc(F)c(CN4CCOCC4)cc3F)ncc2F)n1C1CCOCC1` [Ex 5, N-(2,5-Difluoro-4-(morpholinomethyl)phenyl)-5-fluoro-4-(2-methyl-1-(tetrahydro-2H-pyran-4-yl)-1H-imidazol-5-yl)pyrimidin-2-amine] returned a Papp A→B at 90 min, 10 µM of 45 ×10⁻⁶ cm/s. The figures for the Ki in data set [2] and in data set [3] were 127 nM and 4.9 nM, respectively. Moreover, the “Selectivity GSK3β vs CDK2” value in data set [3] is given as 26.

For the compound `Cc1ncc(-c2nc(Nc3ccc(CN4[C@@H](C)COC[C@@H]4C)cc3F)ncc2F)n1C1CCOCC1` [Ex 4, N-(4-(((3S,5S)-3,5-Dimethylmorpholino)methyl)-2-fluorophenyl)-5-fluoro-4-(2-methyl-1-(tetrahydro-2H-pyran-4-yl)-1H-imidazol-5-yl)pyrimidin-2-amine hydrochloride], the Papp A→B at 60 min, 10 µM in data set [4] turned out to be 44 ×10⁻⁶ cm/s. Besides, the Ki in data set [2] is 318 nM. In data set [3], the Ki was 11 nM and the “Selectivity GSK3β vs CDK2” value is on record as 29.

Consider `Cc1ncc(-c2nc(Nc3ccc(CN4CCOC[C@H]4C)cc3F)ncc2F)n1C1CCOCC1` [Ex 2, 5-Fluoro-N-(2-fluoro-4-(((R)-3-methylmorpholino)methyl)phenyl)-4-(2-methyl-1-(tetrahydro-2H-pyran-4-yl)-1H-imidazol-5-yl)pyrimidin-2-amine hydrochloride], for which, in data set [4], the Papp A→B at 60 min, 10 µM came out at 39 ×10⁻⁶ cm/s. Moreover, the inhibition constant (Ki) in data set [2] was 290 nM. For the same compound, in data set [3], the inhibitory constant (Ki) is 5 nM and the “Selectivity GSK3β vs CDK2” value came out at 58.

`Cc1ncc(-c2nc(Nc3ccc(CN4CCOCC4)cc3F)ncc2F)n1C1CCOCC1` [Ex 1, 5-Fluoro-N-(2-fluoro-4-(morpholinomethyl)phenyl)-4-(2-methyl-1-(tetrahydro-2H-pyran-4-yl)-1H-imidazol-5-yl)pyrimidin-2-amine] displayed a Papp A→B at 90 min, 10 µM in data set [1] of 36 ×10⁻⁶ cm/s. Further, the inhibitory constant (Ki) in data set [2] was 308 nM. In data set [3], the Ki is 15 nM and the “Selectivity GSK3β vs CDK2” value is 20.

As for `Cc1ncc(-c2nc(Nc3ccc(CN4CCOC[C@@H]4C)cc3F)ncc2F)n1C1CCOCC1` [Ex 3, 5-Fluoro-N-(2-fluoro-4-(((S)-3-methylmorpholino)methyl)phenyl)-4-(2-methyl-1-(tetrahydro-2H-pyran-4-yl)-1H-imidazol-5-yl)pyrimidin-2-amine hydrochloride], in data set [4], the apparent permeability from apical to basolateral (Papp A→B) at 60 min, 10 µM turned out to be 56 ×10⁻⁶ cm/s. Moreover, in data set [2], the Ki was 940 nM. In data set [3], the inhibition constant (Ki) is 30 nM and the “Selectivity GSK3β vs CDK2” value is listed as 31.

Consider `Cc1ncc(-c2nc(Nc3ccc(CN4CCOCC4)cc3)ncc2F)n1C1CCOCC1` [Reference example, 5-fluoro-4-(2-methyl-1-(tetrahydro-2H-pyran-4-yl)-1H-imidazol-5-yl)-N-(4-(morpholinomethyl)phenyl)pyrimidin-2-amine, reference compound], for which the Papp A→B at 90 min, 10 µM in data set [1] was 26 ×10⁻⁶ cm/s. In addition, in data set [2], the Ki was 110 nM. For the same compound, in data set [3], the Ki was 8.1 nM and the “Selectivity GSK3β vs CDK2” value is on record as 14.

The compound `Cc1ncc(-c2nc(Nc3cc(F)c(CN4CCOCC4)cc3F)ncc2F)n1C1CCOCC1` (as salt: succinate) [Ex 5, N-(2,5-Difluoro-4-(morpholinomethyl)phenyl)-5-fluoro-4-(2-methyl-1-(tetrahydro-2H-pyran-4-yl)-1H-imidazol-5-yl)pyrimidin-2-amine] came in with a melting point of 177 °C.

Turning to `Cc1ncc(-c2nc(Nc3cc(F)c(CN4CCOCC4)cc3F)ncc2F)n1C1CCOCC1` [Ex 6, N-(2,5-Difluoro-4-(morpholinomethyl)phenyl)-5-fluoro-4-(2-methyl-1-(tetrahydro-2H-pyran-4-yl)-1H-imidazol-5-yl)pyrimidin-2-amine hydrochloride], the figures for the Ki in data set [2] and in data set [3] were 133 nM and 4.9 nM, respectively. In addition, in data set [3] (hydrochloride), the “Selectivity GSK3β vs CDK2” value stood at 27.

As for `Cc1ncc(-c2nc(Nc3cc(F)c(CN4CCOC[C@@H]4C)cc3F)ncc2F)n1C1CCOCC1` [Ex 7, N-(2,5-Difluoro-4-(((S)-3-methylmorpholino)methyl)phenyl)-5-fluoro-4-(2-methyl-1-(tetrahydro-2H-pyran-4-yl)-1H-imidazol-5-yl)pyrimidin-2-amine], the apical-to-basolateral permeability (Papp A→B) at 60 min, 10 µM in data set [4] is 44 ×10⁻⁶ cm/s. The inhibitory constant (Ki) in data set [2] was 175 nM. Moreover, in data set [3], the inhibition constant (Ki) is 11 nM and the “Selectivity GSK3β vs CDK2” value was 16.

The compound `Cc1ncc(-c2nc(Nc3cc(F)c(CN4[C@@H](C)COC[C@@H]4C)cc3F)ncc2F)n1C1CCOCC1` [Ex 8, N-(4-(((3S,5S)-3,5-Dimethylmorpholino)methyl)-2,5-difluorophenyl)-5-fluoro-4-(2-methyl-1-(tetrahydro-2H-pyran-4-yl)-1H-imidazol-5-yl)pyrimidin-2-amine] displayed an apical-to-basolateral permeability (Papp A→B) at 60 min, 10 µM in data set [4] of 40 ×10⁻⁶ cm/s. Besides, the inhibition constant Ki in data set [2] was 222 nM. In data set [3], the Ki is 7.7 nM and the “Selectivity GSK3β vs CDK2” value is 29.

A word on the Papp A→B: it is how fast a substance crosses the layer from the apical side. As a reminder, the Ki is a dissociation constant, usually derived from enzyme kinetics or from competition with a known ligand. The melting point is the temperature, or range, at which the solid turns liquid.
